Structures are written as SMILES.

The target in one test is CDK2 (UniProt P24941). Description: Enzyme Assay.
Test [1] deals with CDK2 (human) (UniProt P24941). Description: Cell-Based Assay.
In the next test the target is EGFR (UniProt P00533).
For test [2], the target named is CDK2 (human) (UniProt P24941). To be noted: A431.

Chain of EGFR (P00533 whole entry, looked up): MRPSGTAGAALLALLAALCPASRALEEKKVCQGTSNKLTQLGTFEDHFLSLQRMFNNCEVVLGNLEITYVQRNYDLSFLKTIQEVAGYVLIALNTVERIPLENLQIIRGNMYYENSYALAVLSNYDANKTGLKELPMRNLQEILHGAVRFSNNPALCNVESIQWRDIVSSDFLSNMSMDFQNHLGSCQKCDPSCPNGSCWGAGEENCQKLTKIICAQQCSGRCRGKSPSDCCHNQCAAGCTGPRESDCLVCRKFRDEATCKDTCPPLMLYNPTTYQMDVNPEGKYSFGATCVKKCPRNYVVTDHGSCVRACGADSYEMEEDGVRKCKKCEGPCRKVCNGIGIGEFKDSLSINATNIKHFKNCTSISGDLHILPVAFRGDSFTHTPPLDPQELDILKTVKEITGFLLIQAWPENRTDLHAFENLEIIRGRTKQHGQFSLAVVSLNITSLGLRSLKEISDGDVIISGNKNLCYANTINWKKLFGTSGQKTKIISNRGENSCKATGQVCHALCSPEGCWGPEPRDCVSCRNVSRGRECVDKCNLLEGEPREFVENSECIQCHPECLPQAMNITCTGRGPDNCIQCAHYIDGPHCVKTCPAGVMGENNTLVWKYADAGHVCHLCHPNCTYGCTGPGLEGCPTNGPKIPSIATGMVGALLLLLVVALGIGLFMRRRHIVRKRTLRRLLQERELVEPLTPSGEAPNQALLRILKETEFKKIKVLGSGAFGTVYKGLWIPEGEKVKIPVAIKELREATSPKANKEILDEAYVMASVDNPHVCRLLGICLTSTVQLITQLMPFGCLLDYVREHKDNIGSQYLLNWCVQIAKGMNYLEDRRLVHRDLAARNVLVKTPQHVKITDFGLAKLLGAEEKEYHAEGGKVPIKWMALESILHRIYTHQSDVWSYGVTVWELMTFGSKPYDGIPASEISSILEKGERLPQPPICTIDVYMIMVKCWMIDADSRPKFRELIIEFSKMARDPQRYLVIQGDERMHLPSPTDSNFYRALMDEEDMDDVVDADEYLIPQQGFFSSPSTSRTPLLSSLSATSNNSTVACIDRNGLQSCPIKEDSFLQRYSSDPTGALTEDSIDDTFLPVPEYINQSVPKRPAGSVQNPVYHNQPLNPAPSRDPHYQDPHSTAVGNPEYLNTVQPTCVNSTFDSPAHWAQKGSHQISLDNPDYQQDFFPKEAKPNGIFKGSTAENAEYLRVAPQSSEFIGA

Turning to `CC(C)n1ncc2c(Nc3cccc(Br)c3)nc(N(CCO)CCO)nc21`, the figures for the IC50 against CDK2 and on EGFR were 29.5 µM and > 100 µM, respectively. Further, the GI50 (as a rule, the concentration giving 50% growth inhibition) in the test with CDK2 (human) [1] (hct-116) was 5.06 µM; in the test with CDK2 (human) [1] (snu638) it was 4.1 µM; with CDK2 (human) [2], 2.58 µM.

Regarding `Cn1ncc2c(Nc3cccc(Br)c3)nc(N(CCO)CCO)nc21`, the IC50 against CDK2 and at EGFR was > 100 µM each time. In addition, the GI50 was 16.6 µM in the test with CDK2 (human) [1] (hct-116), 6.2 µM in the test with CDK2 (human) [1] (snu638) and 2.94 µM in the test with CDK2 (human) [2].

Consider `COc1cccc(Nc2nc(NCCO)nc3c2cnn3C)c1`, for which the IC50 against CDK2 and against EGFR was > 100 µM each time. Besides, the GI50 with CDK2 (human) [1] (hct-116) stood at 90.4 µM; in the test with CDK2 (human) [1] (snu638), 21.7 µM; with CDK2 (human) [2], 19.1 µM.

For `COc1cccc(Nc2nc(N(CCO)CCO)nc3c2cnn3C)c1`, the IC50 (in general, the point on the concentration scale where inhibition reaches its midpoint) on CDK2 is 57.5 µM; against EGFR, > 100 µM. Moreover, the GI50 stood at 17.2 µM with CDK2 (human) [1] (hct-116), 10.5 µM in the test with CDK2 (human) [1] (snu638) and 12.9 µM with CDK2 (human) [2].

In the case of `CC(C)n1ncc2c(Nc3cccc(Br)c3)nc(NCCO)nc21`, the figures for the concentration for half-maximal inhibition (IC50) against CDK2 and against EGFR were 28.2 µM and > 100 µM, respectively. Further, the GI50 in the test with CDK2 (human) [1] (hct-116) is 6.46 µM; in the test with CDK2 (human) [1] (snu638), 4.28 µM; with CDK2 (human) [2] it was 2.19 µM.

As for `OCCNc1nc(NCc2ccccc2)c2cn[nH]c2n1`, the figures for the IC50 at CDK2 and on EGFR were 29.5 µM and 93.3 µM, respectively. The GI50 is 4.5 µM in the test with CDK2 (human) [1] (hct-116), 20.8 µM with CDK2 (human) [1] (snu638) and 26.6 µM in the test with CDK2 (human) [2].

Turning to `Cn1ncc2c(NCc3ccc([N+](=O)[O-])cc3)nc(NCCO)nc21`, the IC50 on CDK2 was 17.8 µM; against EGFR, > 100 µM. The GI50 came out at 48.5 µM with CDK2 (human) [1] (hct-116), 24.9 µM in the test with CDK2 (human) [1] (snu638) and 23.4 µM with CDK2 (human) [2].

Take `Cn1ncc2c(Nc3cccc(F)c3)nc(NCCO)nc21`: the IC50 against CDK2 was 21.4 µM; at EGFR it was > 100 µM. The values for the GI50 with CDK2 (human) [1] (hct-116), in the test with CDK2 (human) [1] (snu638) and in the test with CDK2 (human) [2] were 28.2 µM, 15.8 µM and 16.3 µM, respectively.

On to `Cn1ncc2c(NCc3ccccc3)nc(N(CCO)CCO)nc21`, for which the values for the half-maximal inhibitory concentration (IC50) against CDK2 and at EGFR were > 100 µM and 77.6 µM, respectively. The values for the GI50 in the test with CDK2 (human) [1] (hct-116), in the test with CDK2 (human) [1] (snu638) and in the test with CDK2 (human) [2] were 53.4 µM, 25.3 µM and 24.3 µM, respectively.

Consider `CC(C)n1ncc2c(NCc3ccc([N+](=O)[O-])cc3)nc(NCCO)nc21`, for which the IC50 was 46.8 µM against CDK2 and > 100 µM on EGFR. The GI50 in the test with CDK2 (human) [1] (hct-116) is 77.7 µM; with CDK2 (human) [1] (snu638) it was 23.4 µM; with CDK2 (human) [2], 32 µM.

For the molecule `CC(C)n1ncc2c(NCc3ccccc3)nc(N(CCO)CCO)nc21`, the IC50 against CDK2 and against EGFR was > 100 µM throughout. Besides, the 50% growth inhibitory concentration (GI50) came to 47.7 µM with CDK2 (human) [1] (hct-116), 26.1 µM in the test with CDK2 (human) [1] (snu638) and 21.9 µM in the test with CDK2 (human) [2].

Turning to `COc1cccc(Nc2nc(NCCO)nc3[nH]ncc23)c1`, the IC50 against CDK2 is 3.1 µM; against EGFR, > 100 µM. Also, the GI50 with CDK2 (human) [1] (hct-116) is 38.2 µM; in the test with CDK2 (human) [1] (snu638), 17.1 µM; with CDK2 (human) [2], > 100 µM.

As for `OCCN(CCO)c1nc(Nc2cccc(F)c2)c2cn[nH]c2n1`, the IC50 at CDK2 was 0.9 µM; against EGFR, > 100 µM. The GI50 with CDK2 (human) [1] (hct-116) is > 100 µM; with CDK2 (human) [1] (snu638), > 100 µM; in the test with CDK2 (human) [2] it was 54.3 µM.

As to `CC(C)n1ncc2c(Nc3cccc(F)c3)nc(N(CCO)CCO)nc21`, the half-inhibitory concentration (IC50) was 47.9 µM against CDK2 and > 100 µM on EGFR. The GI50 with CDK2 (human) [1] (hct-116) was determined as 10.9 µM; with CDK2 (human) [1] (snu638), 7.95 µM; with CDK2 (human) [2], 6.25 µM.

Take `COc1cccc2c1C(=O)c1c(O)c3c(c(O)c1C2=O)C[C@@](O)(C(=O)CO)CC3O[C@H]1C[C@H](N)[C@H](O)[C@H](C)O1` (some centres not stated): the GI50 with CDK2 (human) [1] (hct-116) came out at 0.13 µM; with CDK2 (human) [2] it was 0.18 µM.

Regarding `CC(C)n1ncc2c(NCc3ccc(N)cc3)nc(NCCO)nc21`, the IC50 on CDK2 and against EGFR was > 100 µM each time. Further, the GI50 was > 100 µM with CDK2 (human) [1] (hct-116), 38.2 µM with CDK2 (human) [1] (snu638) and 55.3 µM in the test with CDK2 (human) [2].

Take `COc1cccc(Nc2nc(N(CCO)CCO)nc3c2cnn3C(C)C)c1`: the values for the IC50 at CDK2 and against EGFR were 66 µM and > 100 µM, respectively. The figures for the GI50 with CDK2 (human) [1] (hct-116), with CDK2 (human) [1] (snu638) and with CDK2 (human) [2] were 12.6 µM, 7.92 µM and 4.43 µM, respectively.

For the molecule `Cn1ncc2c(NCc3ccc(N)cc3)nc(NCCO)nc21`, the IC50 against CDK2 and at EGFR was > 100 µM in each case. Further, the GI50 with CDK2 (human) [1] (hct-116) was > 100 µM; with CDK2 (human) [1] (snu638) it was 96.8 µM; with CDK2 (human) [2], 58.9 µM.

Consider `Cn1ncc2c(Nc3cccc(F)c3)nc(N(CCO)CCO)nc21`, for which the IC50 against CDK2 is 36.3 µM; at EGFR it was 29.5 µM. Also, the results for the GI50 in the test with CDK2 (human) [1] (hct-116), in the test with CDK2 (human) [1] (snu638) and with CDK2 (human) [2] were 8.89 µM, 2.56 µM and 3.94 µM, respectively.

Take `Cn1ncc2c(NCc3ccccc3)nc(NCCO)nc21`: the IC50 at CDK2 and at EGFR was > 100 µM throughout. Further, the GI50 was > 100 µM with CDK2 (human) [1] (hct-116), 37.1 µM with CDK2 (human) [1] (snu638) and 42.7 µM with CDK2 (human) [2].

With `COc1cccc(Nc2nc(N(CCO)CCO)nc3[nH]ncc23)c1`, the results for the IC50 on CDK2 and at EGFR were 10.2 µM and > 100 µM, respectively. Besides, the GI50 with CDK2 (human) [1] (hct-116), in the test with CDK2 (human) [1] (snu638) and with CDK2 (human) [2] was > 100 µM each time.

`CC(C)n1ncc2c(Nc3cccc(F)c3)nc(NCCO)nc21`: the IC50 on CDK2 was 49 µM; on EGFR it was > 100 µM. The GI50 worked out at 19.3 µM in the test with CDK2 (human) [1] (hct-116), 7.57 µM with CDK2 (human) [1] (snu638) and 7.8 µM with CDK2 (human) [2].

In the case of `Cn1ncc2c(Nc3cccc(Br)c3)nc(NCCO)nc21`, the figures for the IC50 on CDK2 and on EGFR were > 100 µM and 47.9 µM, respectively. Moreover, the GI50 in the test with CDK2 (human) [1] (hct-116) is > 100 µM; in the test with CDK2 (human) [1] (snu638) it was 18.2 µM; with CDK2 (human) [2], 31.9 µM.

Regarding `OCCN(CCO)c1nc(Nc2cccc(Br)c2)c2cn[nH]c2n1`, the IC50 amounted to 3.8 µM against CDK2 and 36.3 µM against EGFR. Besides, the GI50 with CDK2 (human) [1] (hct-116) was > 100 µM; with CDK2 (human) [1] (snu638) it was 38.9 µM; with CDK2 (human) [2], > 100 µM.

As to `CC(C)n1ncc2c(NCc3ccccc3)nc(NCCO)nc21`, the IC50 against CDK2 and against EGFR was > 100 µM in each case. Moreover, the 50% growth inhibitory concentration (GI50) in the test with CDK2 (human) [1] (hct-116) was found to be 57.6 µM; with CDK2 (human) [1] (snu638), 25.2 µM; in the test with CDK2 (human) [2], 35.6 µM.

As to `OCCNc1nc(Nc2cccc(Br)c2)c2cn[nH]c2n1`, the IC50 was 8.1 µM against CDK2 and > 100 µM against EGFR. For the same molecule, the GI50 was > 100 µM in the test with CDK2 (human) [1] (hct-116), 69.2 µM in the test with CDK2 (human) [1] (snu638) and > 100 µM in the test with CDK2 (human) [2].

Consider `OCCNc1nc(Nc2cccc(F)c2)c2cn[nH]c2n1`, for which the half-inhibitory concentration (IC50) against CDK2 is 0.5 µM; against EGFR it was 66.1 µM. Also, the GI50 with CDK2 (human) [1] (hct-116) was > 100 µM; in the test with CDK2 (human) [1] (snu638), > 100 µM; in the test with CDK2 (human) [2], 28.9 µM.

With `OCCN(CCO)c1nc(NCc2ccccc2)c2cn[nH]c2n1`, the IC50 on CDK2 stood at 37.2 µM; against EGFR, 55 µM. Besides, the GI50 was 93.6 µM with CDK2 (human) [1] (hct-116), 29 µM in the test with CDK2 (human) [1] (snu638) and > 100 µM with CDK2 (human) [2].

For `COc1cccc(Nc2nc(NCCO)nc3c2cnn3C(C)C)c1`, the IC50 against CDK2 and at EGFR was > 100 µM in each case. Besides, the GI50 with CDK2 (human) [1] (hct-116) is 21.4 µM; with CDK2 (human) [1] (snu638), 7.55 µM; in the test with CDK2 (human) [2] it was 13.1 µM.
